Target: T1, Gr21a/Gr63a heteromeric CO2 receptor (ab1C neuron) (Drosophila melanogaster, UniProt Q9VPT1+Q9VZL7)
T1 sequence (Q9VPT1 1-447): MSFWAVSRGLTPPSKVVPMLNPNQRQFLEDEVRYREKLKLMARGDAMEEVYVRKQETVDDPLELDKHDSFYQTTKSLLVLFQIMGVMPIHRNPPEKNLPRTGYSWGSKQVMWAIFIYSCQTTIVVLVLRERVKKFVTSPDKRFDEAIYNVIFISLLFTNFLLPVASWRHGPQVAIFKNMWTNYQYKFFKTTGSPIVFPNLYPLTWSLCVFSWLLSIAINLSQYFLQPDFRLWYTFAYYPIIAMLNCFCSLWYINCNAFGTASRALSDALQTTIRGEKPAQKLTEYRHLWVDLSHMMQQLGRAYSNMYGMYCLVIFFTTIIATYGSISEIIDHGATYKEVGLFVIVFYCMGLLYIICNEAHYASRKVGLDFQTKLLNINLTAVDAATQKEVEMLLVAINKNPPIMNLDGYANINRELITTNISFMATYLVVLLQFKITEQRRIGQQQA
T1 sequence (Q9VZL7 1-512): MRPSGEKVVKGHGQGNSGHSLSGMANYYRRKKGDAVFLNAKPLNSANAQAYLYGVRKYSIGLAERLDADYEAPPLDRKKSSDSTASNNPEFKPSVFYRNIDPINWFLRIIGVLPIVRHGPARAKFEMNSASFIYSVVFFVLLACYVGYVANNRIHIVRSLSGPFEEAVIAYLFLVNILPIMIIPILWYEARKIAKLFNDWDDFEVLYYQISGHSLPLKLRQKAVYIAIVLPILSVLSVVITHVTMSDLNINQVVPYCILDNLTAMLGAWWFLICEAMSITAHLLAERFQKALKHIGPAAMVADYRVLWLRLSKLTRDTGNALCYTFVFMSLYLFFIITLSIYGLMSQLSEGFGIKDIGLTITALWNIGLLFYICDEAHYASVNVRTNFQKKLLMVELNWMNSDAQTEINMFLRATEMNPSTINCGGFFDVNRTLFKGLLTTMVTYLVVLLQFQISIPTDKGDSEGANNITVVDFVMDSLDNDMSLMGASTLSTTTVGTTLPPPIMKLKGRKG
Test: single-sensillum recording of ab1C neuron
Format: cell-based
Details: inhibitor; orco mutant flies; native neuron in vivo

## CCOC(=O)C(C)=O [ethyl pyruvate]
  single-sensillum recording of ab1C neuron: the cpA inhibitor ethyl pyruvate also effectively inhibited the ab1C neuron
